Measurements taken from ChEMBL document CHEMBL4837216, “Polymyxin B-inspired non-hemolytic tyrocidine A analogues with significantly enhanced activity against gram-negative bacteria: How cationicity impacts cell specificity and antibacterial mechanism” (Eur J Med Chem, 2021).
Converted amounts (≈) assume the structure as drawn. The source made the active and inactive calls. No cut-off for these calls is given here. Where a SMILES comes first, the peptide text is derived from it. Bridges are numbered along the chain shown (N, C = ends). [ ]: non-standard residue; d: D form. The star is where a group is joined. X1 = CC[C@H](C)CCCCC(=O)*; Orn = NCCC[C@H](N)C(=O)O; Dab = NCC[C@H](N)C(=O)O

Legend:
Staphylococcus aureus [1] = test: Antibacterial activity against Staphylococcus aureus ATCC 6538 assessed as inhibition of bacterial growth measured after 24 hrs by turbidity based analysis; assay type: functional
Acinetobacter baumannii = test: Antibacterial activity against Acinetobacter baumannii ATCC 19606 assessed as inhibition of bacterial growth measured after 24 hrs by turbidity based analysis; assay type: functional; settings: ATCC 19606 = CIP 70.34 = JCM 6841
Pseudomonas aeruginosa = test: Antibacterial activity against Pseudomonas aeruginosa ATCC 27853 assessed as inhibition of bacterial growth measured after 24 hrs by turbidity based analysis; assay type: functional
[2] = Hemolytic activity in human RBC assessed as induction of cell lysis measured after 30 mins by microtiter plate method; assay type: cell-based, Erythrocyte; settings: human red blood cells (erythrocytes)
Enterococcus faecalis = test: Antibacterial activity against Enterococcus faecalis ATCC 29212 assessed as inhibition of bacterial growth measured after 24 hrs by turbidity based analysis; assay type: functional
Escherichia coli [3] = test: Antibacterial activity against Escherichia coli ATCC 8739 assessed as inhibition of bacterial growth measured after 24 hrs by turbidity based analysis; assay type: functional
Staphylococcus aureus [4] = test: Antibacterial activity against methicillin resistant Staphylococcus aureus assessed as inhibition of bacterial growth measured after 24 hrs by turbidity based analysis; assay type: functional
Cell membrane [5] = test: Induction of cytoplasmic membrane depolarization in Staphylococcus aureus assessed as increase in fluorescence intensity a 1XMIC by DiSC3-5 dye based fluorescence method
Cell membrane [6] = test: Induction of cytoplasmic membrane depolarization in Escherichia coli assessed as increase in fluorescence intensity a 1XMIC by DiSC3-5 dye based fluorescence method
Lipopolysaccharide (LPS) = test: Displacement of dansyl-polymyxinB from LPS (unknown origin) assessed as decrease in fluorescence intensity by fluorescence spectrophotometric analysis
Cell membrane [7] = test: Induction of outer membrane permeabilization to NPN in Escherichia coli ATCC 8739 cells assessed as increase in fluorescence intensity by NPN-probe based fluorescence spectrophotometric analysis; assay type: subcellular
Staphylococcus aureus [8] = test: Antibacterial activity against Staphylococcus aureus ATCC 6538 assessed as inhibition of bacterial growth measured after 17 passages by turbidity based analysis; assay type: functional, organism-based
Escherichia coli [9] = test: Antibacterial activity against Escherichia coli ATCC 8739 assessed as inhibition of bacterial growth measured after 17 passages by turbidity based analysis; assay type: functional, organism-based
Cell membrane [10] = test: Induction of cytoplasmic membrane permeabilization in Escherichia coli at 0.5 times MIC measured for 10 mins by propidium iodide dye based fluorescence assay; assay type: subcellular
Escherichia coli [11] = test: Bactericidal activity against Escherichia coli assessed as decrease in cell survival at 0.5XMIC measured after 24 hrs by colony counting assay; assay type: functional, organism-based
L02 = test: Cytotoxicity against human L02 cells assessed as reduction in cell viability at 5 uM incubated for 24 hrs by CCK8 assay; assay type: cell-based; settings: l02, 24 h
Cell membrane [12] = test: Induction of cytoplasmic membrane permeabilization in Staphylococcus aureus at 0.5 times MIC measured for 10 mins by propidium iodide dye based fluorescence assay; assay type: subcellular
Lipid bilayer [13] = test: Binding affinity to eukaryotic cell membrane mimic DOPC/Cholesterol (3:1) large unilamellar vesicles assessed as calcein leakage measured after 30 mins fluorescence based assay
Cell membrane [14] = test: Induction of cytoplasmic membrane permeabilization in Escherichia coli at 1 times MIC measured for 10 mins by propidium iodide dye based fluorescence assay; assay type: subcellular
Cell membrane [15] = test: Induction of cytoplasmic membrane permeabilization in Staphylococcus aureus at 1 times MIC measured for 10 mins by propidium iodide dye based fluorescence assay
Lipid bilayer [16] = test: Binding affinity to bacterial inner membrane mimic DOPE/DOPG (3:1) large unilamellar vesicles assessed as calcein leakage measured after 30 mins fluorescence based assay
Staphylococcus aureus [17] = test: Bactericidal activity against Staphylococcus aureus assessed as decrease in cell survival at 0.5XMIC measured after 24 hrs by colony counting assay; assay type: functional, organism-based

| SMILES | MIC (Staphylococcus aureus [1]) | MIC (Acinetobacter baumannii) | MIC (Pseudomonas aeruginosa) | HC50 at 0.5 h [2] | MIC (Enterococcus faecalis) | MIC (Escherichia coli [3]) | MIC (Staphylococcus aureus [4]) | Activity (Cell membrane [5]) | Activity (Cell membrane [6]) | Activity (Lipopolysaccharide (LPS)) | Activity (Cell membrane [7]) | further results |
| --- | --- | --- | --- | --- | --- | --- | --- | --- | --- | --- | --- | --- |
| CC(C)C[C@@H]1NC(=O)[C@H](CCCN)NC(=O)[C@H](C(C)C)NC(=O)[C@H](Cc2ccc(O)cc2)NC(=O)[C@H](CCCN)NC(=O)[C@H](CCCN)NC(=O)[C@@H](Cc2ccccc2)NC(=O)C(Cc2ccccc2)NC(=O)[C@@H]2CCCN2C(=O)[C@@H](Cc2ccccc2)NC1=O (single isomer, unassigned) | 5 µM (≈ 6.28 µg/mL) | 5 µM (≈ 6.28 µg/mL) | 40 µM (≈ 50.3 µg/mL) | 24 µM | 2.5 µM (≈ 3.14 µg/mL) | 5 µM (≈ 6.28 µg/mL) | 5 µM (≈ 6.28 µg/mL) |  |  |  |  |  |
| CC(C)C[C@@H]1NC(=O)[C@H](CCCN)NC(=O)[C@H](C(C)C)NC(=O)[C@H](CCCN)NC(=O)[C@H](CCCN)NC(=O)[C@H](CCCN)NC(=O)[C@@H](Cc2ccccc2)NC(=O)[C@H](Cc2ccccc2)NC(=O)[C@@H]2CCCN2C(=O)[C@@H](Cc2ccccc2)NC1=O | 5 µM (≈ 6.04 µg/mL) | 10 µM (≈ 12.1 µg/mL) | 20 µM (≈ 24.2 µg/mL) | 196 µM | 5 µM (≈ 6.04 µg/mL) | 5 µM (≈ 6.04 µg/mL) | 10 µM (≈ 12.1 µg/mL) | Active | Active | Active | Active |  |
| CC(C)C[C@@H]1NC(=O)[C@H](CCCN)NC(=O)[C@H](C(C)C)NC(=O)[C@H](Cc2ccc(O)cc2)NC(=O)[C@H](CCCN)NC(=O)[C@H](CC(N)=O)NC(=O)[C@@H](Cc2ccccc2)NC(=O)[C@H](Cc2ccccc2)NC(=O)[C@@H]2CCCN2C(=O)[C@@H](Cc2ccccc2)NC1=O (cyclo(F[dF]N[Orn]YV[Orn]L[dF]P)) | 2.5 µM (≈ 3.14 µg/mL) | 5 µM (≈ 6.28 µg/mL) | 40 µM (≈ 50.3 µg/mL) | 10 µM | 1.25 µM (≈ 1.57 µg/mL) | 5 µM (≈ 6.28 µg/mL) | 5 µM (≈ 6.28 µg/mL) |  |  |  |  |  |
| NCCC[C@@H]1NC(=O)[C@H](CCCN)NC(=O)[C@H](CCCN)NC(=O)[C@H](CCCN)NC(=O)[C@@H](Cc2ccccc2)NC(=O)[C@H](Cc2ccccc2)NC(=O)[C@@H]2CCCN2C(=O)[C@@H](Cc2ccccc2)NC(=O)[C@H](CCCN)NC(=O)[C@H](CCCN)NC1=O | 20 µM (≈ 24.5 µg/mL) | 80 µM (≈ 97.9 µg/mL) | 80 µM (≈ 97.9 µg/mL) | > 400 µM | 10 µM (≈ 12.2 µg/mL) | 40 µM (≈ 48.9 µg/mL) | 40 µM (≈ 48.9 µg/mL) | inactive | inactive | Active | Active |  |
| O=C(O)c1cn(C2CC2)c2cc(N3CCNCC3)c(F)cc2c1=O |  |  |  |  |  |  |  |  |  |  |  | Activity (Staphylococcus aureus [8]): inactive; Activity (Escherichia coli [9]): inactive |
| CC[C@H](C)CCCCC(=O)N[C@@H](CCN)C(=O)N[C@H](C(=O)N[C@@H](CCN)C(=O)N[C@H]1CCNC(=O)[C@H]([C@@H](C)O)NC(=O)[C@H](CCN)NC(=O)[C@H](CCN)NC(=O)[C@H](CC(C)C)NC(=O)[C@@H](Cc2ccccc2)NC(=O)[C@H](CCN)NC1=O)[C@@H](C)O (X1-[Dab]T[Dab][Dab][Dab][dF]L[Dab][Dab]T; lactam 4-C) |  |  |  |  |  |  |  |  |  | Active |  |  |
| CC(C)C[C@@H]1NC(=O)[C@H](CCCN)NC(=O)[C@H](C(C)C)NC(=O)[C@H](CCCN)NC(=O)[C@H](CCCN)NC(=O)[C@H](CC(N)=O)NC(=O)[C@@H](Cc2ccccc2)NC(=O)[C@H](Cc2ccccc2)NC(=O)[C@@H]2CCCN2C(=O)[C@@H](Cc2ccccc2)NC1=O | 10 µM (≈ 12.1 µg/mL) | 10 µM (≈ 12.1 µg/mL) | 20 µM (≈ 24.1 µg/mL) | 70 µM | 2.5 µM (≈ 3.02 µg/mL) | 10 µM (≈ 12.1 µg/mL) | 10 µM (≈ 12.1 µg/mL) |  |  |  |  |  |
| CC(C)C[C@@H]1NC(=O)[C@H](CCCN)NC(=O)[C@H](C(C)C)NC(=O)[C@H](CCCN)NC(=O)[C@H](CCC(N)=O)NC(=O)[C@H](CC(N)=O)NC(=O)[C@@H](Cc2ccccc2)NC(=O)[C@H](Cc2ccccc2)NC(=O)[C@@H]2CCCN2C(=O)[C@@H](Cc2ccccc2)NC1=O | 10 µM (≈ 12.2 µg/mL) | 10 µM (≈ 12.2 µg/mL) | 80 µM (≈ 97.7 µg/mL) | 43 µM | 5 µM (≈ 6.11 µg/mL) | 40 µM (≈ 48.9 µg/mL) | 10 µM (≈ 12.2 µg/mL) |  |  |  |  |  |
| CC(C)C[C@@H]1NC(=O)[C@H](CCCN)NC(=O)[C@H](C(C)C)NC(=O)[C@H](Cc2ccc(O)cc2)NC(=O)[C@H](CCC(N)=O)NC(=O)[C@H](CC(N)=O)NC(=O)[C@@H](Cc2ccccc2)NC(=O)[C@H](Cc2ccccc2)NC(=O)[C@@H]2CCCN2C(=O)[C@@H](Cc2ccccc2)NC1=O [TYROCIDINE A] (cyclo(F[dF]NQYV[Orn]L[dF]P)) | 2.5 µM (≈ 3.18 µg/mL) | 10 µM (≈ 12.7 µg/mL) | 80 µM (≈ 102 µg/mL) | 14 µM | 2.5 µM (≈ 3.18 µg/mL) | 20 µM (≈ 25.4 µg/mL) | 20 µM (≈ 25.4 µg/mL) | Active | Active | Active | Active | Activity (Cell membrane [10]): Active; Activity (Escherichia coli [11]): inactive; Activity (L02): Toxic; Activity (Cell membrane [12]): Active; Activity (Lipid bilayer [13]): Active; Activity (Cell membrane [14]): Active; Activity (Cell membrane [15]): Active; Activity (Lipid bilayer [16]): Active; Activity (Staphylococcus aureus [17]): inactive |
| CC(C)C[C@@H]1NC(=O)[C@H](CCCN)NC(=O)[C@H](C(C)C)NC(=O)[C@H](CCCN)NC(=O)[C@H](CCC(N)=O)NC(=O)[C@H](CCCN)NC(=O)[C@@H](Cc2ccccc2)NC(=O)[C@H](Cc2ccccc2)NC(=O)[C@@H]2CCCN2C(=O)[C@@H](Cc2ccccc2)NC1=O | 5 µM (≈ 6.11 µg/mL) | 10 µM (≈ 12.2 µg/mL) | 40 µM (≈ 48.9 µg/mL) | 282 µM | 5 µM (≈ 6.11 µg/mL) | 5 µM (≈ 6.11 µg/mL) | 10 µM (≈ 12.2 µg/mL) | Active | Active |  | Active |  |
| CC(C)C[C@@H]1NC(=O)[C@H](CCCN)NC(=O)[C@H](C(C)C)NC(=O)[C@H](Cc2ccc(O)cc2)NC(=O)[C@H](CCC(N)=O)NC(=O)[C@H](CCCN)NC(=O)[C@@H](Cc2ccccc2)NC(=O)[C@H](Cc2ccccc2)NC(=O)[C@@H]2CCCN2C(=O)[C@@H](Cc2ccccc2)NC1=O | 5 µM (≈ 6.35 µg/mL) | 5 µM (≈ 6.35 µg/mL) | 80 µM (≈ 102 µg/mL) | 20 µM | 2.5 µM (≈ 3.18 µg/mL) | 20 µM (≈ 25.4 µg/mL) | 20 µM (≈ 25.4 µg/mL) |  |  |  | Active |  |
| CC(C)[C@@H]1NC(=O)[C@H](CCCN)NC(=O)[C@H](CCCN)NC(=O)[C@H](CCCN)NC(=O)[C@@H](Cc2ccccc2)NC(=O)[C@H](Cc2ccccc2)NC(=O)[C@@H]2CCCN2C(=O)[C@@H](Cc2ccccc2)NC(=O)[C@H](CCCN)NC(=O)[C@H](CCCN)NC1=O | 40 µM (≈ 48.3 µg/mL) | 80 µM (≈ 96.7 µg/mL) | 80 µM (≈ 96.7 µg/mL) | > 400 µM | 10 µM (≈ 12.1 µg/mL) | 80 µM (≈ 96.7 µg/mL) | 10 µM (≈ 12.1 µg/mL) |  |  | Active |  |  |
